Activity calls are given as the source filed them. No cut-off for these calls is given here.
Experiments:
Mus musculus [1] = assay: Anticonvulsant activity in Carworth farms No.1 albino mouse assessed as protection against 6 Hz electric current-induced seizure at 100 mg/kg, ip measured after 1 hrs; format: functional, organism-based; design: dose 100 mg/kg
Rattus norvegicus [2] = assay: Neurotoxicity in Sprague-Dawley rat assessed as neurological impairment at 30 mg/kg, po measured after 4 hrs; format: toxicity, organism-based; design: dose 30 mg/kg, route oral; conditions: in vivo
Mus musculus [3] = assay: Anticonvulsant activity in Carworth farms No.1 albino mouse assessed as protection against maximum electroshock at 300 mg/kg, ip measured after 0.5 hrs; format: functional, organism-based; design: dose 300 mg/kg
Mus musculus [4] = assay: Anticonvulsant activity in Carworth farms No.1 albino mouse assessed as protection against 6 Hz electric current-induced seizure at 100 mg/kg, ip measured after 2 hrs; format: functional, organism-based; design: dose 100 mg/kg
Rattus norvegicus [5] = assay: Anticonvulsant activity in Sprague-Dawley rat assessed as protection against maximum electroshock at 30 mg/kg, po measured after 2 hrs; format: functional, organism-based; design: dose 30 mg/kg
Rattus norvegicus [6] = assay: Anticonvulsant activity in Sprague-Dawley rat assessed as protection against maximum electroshock at 30 mg/kg, po measured after 0.25 hrs; format: functional, organism-based; design: dose 30 mg/kg
Mus musculus [7] = assay: Neurotoxicity in Carworth farms No.1 albino mouse assessed as neurological impairment at 100 mg/kg, ip measured after 1 hr; format: toxicity, organism-based; design: dose 100 mg/kg, route intraperitoneal; conditions: in vivo
Rattus norvegicus [8] = assay: Neurotoxicity in Sprague-Dawley rat assessed as neurological impairment at 30 mg/kg, po measured after 1 hr; format: toxicity, organism-based; design: dose 30 mg/kg, route oral; conditions: in vivo
Mus musculus [9] = assay: Anticonvulsant activity in Carworth farms No.1 albino mouse assessed as protection against subcutaneous metrazole-induced seizures at 300 mg/kg, ip measured after 0.5 hrs; format: functional, organism-based; design: dose 300 mg/kg
Mus musculus [10] = assay: Anticonvulsant activity in Carworth farms No.1 albino mouse assessed as protection against 6 Hz electric current-induced seizure at 100 mg/kg, ip measured after 4 hrs; format: functional, organism-based; design: dose 100 mg/kg
Mus musculus [11] = assay: Anticonvulsant activity in ip dosed Carworth farms No.1 albino mouse assessed as protection against 6 Hz electric current-induced seizure measured after 0.25 hrs; format: functional
Rattus norvegicus [12] = assay: Neurotoxicity in Sprague-Dawley rat assessed as neurological impairment at 30 mg/kg, po measured after 2 hrs; format: toxicity, organism-based; design: dose 30 mg/kg, route oral; conditions: in vivo
Rattus norvegicus [13] = assay: Neurotoxicity in Sprague-Dawley rat assessed as neurological impairment at 30 mg/kg, po measured after 0.5 hrs; format: toxicity, organism-based; design: dose 30 mg/kg, route oral; conditions: in vivo
Rattus norvegicus [14] = assay: Anticonvulsant activity in Sprague-Dawley rat assessed as protection against maximum electroshock at 30 mg/kg, po measured after 0.5 hrs; format: functional, organism-based; design: dose 30 mg/kg
Mus musculus [15] = assay: Neurotoxicity in Carworth farms No.1 albino mouse assessed as neurological impairment at 100 mg/kg, ip measured after 2 hr; format: toxicity, organism-based; design: dose 100 mg/kg, route intraperitoneal; conditions: in vivo
Mus musculus [16] = assay: Anticonvulsant activity in Carworth farms No.1 albino mouse assessed as protection against 6 Hz electric current-induced seizure at 100 mg/kg, ip measured after 0.25 hrs; format: functional, organism-based; design: dose 100 mg/kg
Mus musculus [17] = assay: Anticonvulsant activity in Carworth farms No.1 albino mouse assessed as protection against subcutaneous metrazole-induced seizures at 100 mg/kg, ip measured after 0.5 hrs; format: functional, organism-based; design: dose 100 mg/kg
Mus musculus [18] = assay: Neurotoxicity in Carworth farms No.1 albino mouse assessed as neurological impairment at 100 mg/kg, ip measured after 0.5 hrs; format: toxicity, organism-based; design: dose 100 mg/kg, route intraperitoneal; conditions: in vivo
Mus musculus [19] = assay: Anticonvulsant activity in Carworth farms No.1 albino mouse assessed as protection against 6 Hz electric current-induced seizure at 100 mg/kg, ip measured after 0.5 hrs; format: functional, organism-based; design: dose 100 mg/kg
Rattus norvegicus [20] = assay: Anticonvulsant activity in Sprague-Dawley rat assessed as protection against maximum electroshock at 30 mg/kg, po measured after 4 hrs; format: functional, organism-based; design: dose 30 mg/kg
Mus musculus [21] = assay: Neurotoxicity in Carworth farms No.1 albino mouse assessed as inability to grasp rotarod at 100 mg/kg, ip measured after 0.25 hr; format: toxicity, organism-based; design: dose 100 mg/kg, route intraperitoneal; conditions: in vivo
Mus musculus [22] = assay: Anticonvulsant activity in Carworth farms No.1 albino mouse assessed as protection against maximum electroshock at 100 mg/kg, ip measured after 0.5 hrs; format: functional, organism-based; design: dose 100 mg/kg
Mus musculus [23] = assay: Anticonvulsant activity in Carworth farms No.1 albino mouse assessed as protection against maximum electroshock at 300 mg/kg, ip measured after 4 hrs; format: functional, organism-based; design: dose 300 mg/kg
Rattus norvegicus [24] = assay: Neurotoxicity in Sprague-Dawley rat assessed as neurological impairment at 30 mg/kg, po measured after 0.25 hrs; format: toxicity, organism-based; design: dose 30 mg/kg, route oral; conditions: in vivo
Mus musculus [25] = assay: Neurotoxicity in Carworth farms No.1 albino mouse assessed as neurological impairment at 100 mg/kg, ip measured after 4 hrs; format: toxicity, organism-based; design: dose 100 mg/kg, route intraperitoneal; conditions: in vivo
Rattus norvegicus [26] = assay: Anticonvulsant activity in Sprague-Dawley rat assessed as protection against maximum electroshock at 30 mg/kg, po measured after 1 hr; format: functional, organism-based; design: dose 30 mg/kg
Mus musculus [27] = assay: Anticonvulsant activity in Carworth farms No.1 albino mouse assessed as protection against subcutaneous metrazole-induced seizures at 30 mg/kg, ip measured after 0.5 hrs; format: functional, organism-based; design: dose 30 mg/kg
Mus musculus [28] = assay: Neurotoxicity in Carworth farms No.1 albino mouse assessed as inability to grasp rotarod at 100 mg/kg, ip measured after 0.5 hr; format: toxicity, organism-based; design: dose 100 mg/kg, route intraperitoneal; conditions: in vivo
Mus musculus [29] = assay: Neurotoxicity in Carworth farms No.1 albino mouse assessed as neurological impairment at 30 mg/kg, ip measured after 0.5 hrs; format: toxicity, organism-based; design: dose 30 mg/kg, route intraperitoneal; conditions: in vivo
Mus musculus [30] = assay: Anticonvulsant activity in Carworth farms No.1 albino mouse assessed as protection against subcutaneous metrazole-induced seizures at 300 mg/kg, ip measured after 4 hrs; format: functional, organism-based; design: dose 300 mg/kg
Mus musculus [31] = assay: Anticonvulsant activity in Carworth farms No.1 albino mouse assessed as protection against maximum electroshock at 30 mg/kg, ip measured after 4 hrs; format: functional, organism-based; design: dose 30 mg/kg
Mus musculus [32] = assay: Neurotoxicity in Carworth farms No.1 albino mouse assessed as sedation at 300 mg/kg, ip measured after 4 hrs; format: toxicity, organism-based; design: dose 300 mg/kg, route intraperitoneal; conditions: in vivo
Mus musculus [33] = assay: Anticonvulsant activity in Carworth farms No.1 albino mouse assessed as protection against subcutaneous metrazole-induced seizures at 30 mg/kg, ip measured after 4 hrs; format: functional, organism-based; design: dose 30 mg/kg
Mus musculus [34] = assay: Anticonvulsant activity in Carworth farms No.1 albino mouse assessed as protection against maximum electroshock at 30 mg/kg, ip measured after 0.5 hrs; format: functional, organism-based; design: dose 30 mg/kg
Mus musculus [35] = assay: Neurotoxicity in Carworth farms No.1 albino mouse assessed as neurological impairment at 30 mg/kg, ip measured after 4 hrs; format: toxicity, organism-based; design: dose 30 mg/kg, route intraperitoneal; conditions: in vivo
Mus musculus [36] = assay: Neurotoxicity in Carworth farms No.1 albino mouse assessed as neurological impairment at 300 mg/kg, ip measured after 0.5 hrs; format: toxicity, organism-based; design: dose 300 mg/kg, route intraperitoneal; conditions: in vivo
Mus musculus [37] = assay: Anticonvulsant activity in Carworth farms No.1 albino mouse assessed as protection against subcutaneous metrazole-induced seizures at 100 mg/kg, ip measured after 4 hrs; format: functional, organism-based; design: dose 100 mg/kg
Mus musculus [38] = organism: Mus musculus; assay: Anticonvulsant activity in electric shock-induced Carworth farms No.1 albino mouse assessed as time of peak effect; format: functional
Mus musculus [39] = assay: Anticonvulsant activity in Carworth farms No.1 albino mouse assessed as protection against maximum electroshock at 100 mg/kg, ip measured after 4 hrs; format: functional, organism-based; design: dose 100 mg/kg
Mus musculus [40] = assay: Anticonvulsant activity in Carworth farms No.1 albino mouse assessed as protection against subcutaneous metrazole-induced seizures at 100 mg/kg, ip measured after 2 hrs; format: functional, organism-based; design: dose 100 mg/kg
Mus musculus [41] = assay: Anticonvulsant activity in Carworth farms No.1 albino mouse assessed as protection against maximum electroshock at 100 mg/kg, ip measured after 2 hrs; format: functional, organism-based; design: dose 100 mg/kg
Mus musculus [42] = assay: Neurotoxicity in Carworth farms No.1 albino mouse assessed as neurological impairment at 300 mg/kg, ip measured after 4 hrs; format: toxicity, organism-based; design: dose 300 mg/kg, route intraperitoneal; conditions: in vivo

With `O=C1NC(=O)[C@@H]2CCCCN2[C@H]1c1ccccc1` the Activity (Mus musculus [1]) was “Active”, the Activity (Rattus norvegicus [2]) was “Non-toxic” and the Activity (Mus musculus [3]) was “Active”. For the same molecule, the Activity (Mus musculus [4]) was “Active”, the Activity (Rattus norvegicus [5]) was “inactive” and the Activity (Rattus norvegicus [6]) was “inactive”. For the same molecule, the Activity (Mus musculus [7]) was “Non-toxic”, the Activity (Rattus norvegicus [8]) was “Non-toxic” and the Activity (Mus musculus [9]) was “Active”. The Activity (Mus musculus [10]) was “inactive”, the ED50 (Mus musculus [11]) was 27.2 mg/kg and the Activity (Rattus norvegicus [12]) was “Non-toxic”. The Activity (Rattus norvegicus [13]) was “Non-toxic”, the Activity (Rattus norvegicus [14]) was “inactive” and the Activity (Mus musculus [15]) was “Non-toxic”. For the same molecule, the Activity (Mus musculus [16]) was “Active”, the Activity (Mus musculus [17]) was “Active” and the Activity (Mus musculus [18]) was “Toxic”. For the same molecule, the Activity (Mus musculus [19]) was “Active”, the Activity (Rattus norvegicus [20]) was “Active” and the Activity (Mus musculus [21]) was “Toxic”. The Activity (Mus musculus [22]) was “Active”, the Activity (Mus musculus [23]) was “Active” and the Activity (Rattus norvegicus [24]) was “Non-toxic”. For the same molecule, the Activity (Mus musculus [25]) was “Non-toxic”, the Activity (Rattus norvegicus [26]) was “inactive” and the Activity (Mus musculus [27]) was “inactive”. For the same molecule, the Activity (Mus musculus [28]) was “Toxic”, the Activity (Mus musculus [29]) was “Non-toxic” and the Activity (Mus musculus [30]) was “Active”. For the same molecule, the Activity (Mus musculus [31]) was “inactive”, the Activity (Mus musculus [32]) was “Toxic” and the Activity (Mus musculus [33]) was “inactive”. For the same molecule, the Activity (Mus musculus [34]) was “inactive”, the Activity (Mus musculus [35]) was “Non-toxic” and the Activity (Mus musculus [36]) was “Toxic”. For the same molecule, the Activity (Mus musculus [37]) was “inactive”, the Time (Mus musculus [38]) was 0.25 h and the Activity (Mus musculus [39]) was “inactive”.
For `Cl.O=C1[C@H](c2ccccc2)N2CCCC[C@H]2C(=O)N1Cc1ccccc1`, the Activity (Mus musculus [40]) was “Active”, the Activity (Mus musculus [3]) was “inactive” and the Activity (Mus musculus [41]) was “Active”. For the same molecule, the Activity (Mus musculus [9]) was “inactive”, the Activity (Mus musculus [17]) was “inactive” and the Activity (Mus musculus [18]) was “Non-toxic”. For the same molecule, the Activity (Mus musculus [22]) was “inactive”, the Activity (Mus musculus [23]) was “Active” and the Activity (Mus musculus [25]) was “Non-toxic”. For the same molecule, the Activity (Mus musculus [27]) was “inactive”, the Activity (Mus musculus [29]) was “Non-toxic” and the Activity (Mus musculus [30]) was “inactive”. For the same molecule, the Activity (Mus musculus [31]) was “inactive”, the Activity (Mus musculus [33]) was “inactive” and the Activity (Mus musculus [34]) was “inactive”. For the same molecule, the Activity (Mus musculus [42]) was “Non-toxic”, the Activity (Mus musculus [35]) was “Non-toxic” and the Activity (Mus musculus [36]) was “Non-toxic”. For the same molecule, the Activity (Mus musculus [37]) was “inactive” and the Activity (Mus musculus [39]) was “inactive”.

From ChEMBL document CHEMBL1944578, “Synthesis and anticonvulsant activity of novel 2,6-diketopiperazine derivatives. Part 2: Perhydropyrido[1,2-a]pyrazines” (Eur J Med Chem, 2012)
